In EP0585206B1, “Tryptamines for treatment of circadian rhythm disorders” (I.F.L.O. S.a.s. di Giorgio e Aldo Laguzzi, priority 1992, dated 1994):

What follows are compounds tested on N-acetyl-5-methoxytryptamine receptors (assay: biological activity by classical tests (agonist/antagonist character)). Settings: not given.
Description: (§1) All the substances were evaluted for their relative affinity and were tested for biological activity by using classical tests.

Activity	Structure (SMILES)
Agonist	COc1ccc2[nH]c(C)c(CCNC(=O)C3CC3)c2c1 [Compound 4e]
Partial antagonist	COc1ccc2[nH]c(-c3ccccc3)c(CCNC(=O)C3CC3)c2c1 [Compound 4g]
Agonist	COc1ccc2[nH]c(I)c(CCNC(=O)C3CC3)c2c1 [Compound 4i]
Agonist	COc1cc2c(CCNC(C)=O)c(Br)[nH]c2cc1Br [Compound 4l]
Agonist	COc1ccc2[nH]cc(CCNC(C)=O)c2c1 [Melatonin, N-Acetyl-5-methoxytryptamine, reference compound]

Further lines, the compound ahead of its results:

Structure (SMILES)	Activity
COc1ccc2[nH]c(C)c(CCNC(C)=O)c2c1 [Compound 4a]	Agonist
COc1ccc2[nH]c(C3CCCCC3)c(CCNC(C)=O)c2c1 [Compound 4c]	Partial antagonist
COc1ccc2[nH]c(-c3ccccc3)c(CCNC(C)=O)c2c1 [Compound 4d]	Antagonist
COc1ccc2[nH]c(Br)c(CCNC(=O)C3CC3)c2c1 [Compound 4h]	Agonsit
COc1ccc2[nH]c(Br)c(CCNC(C)=O)c2c1 [Compound 4j, N-acetyl-2-bromo-5-methoxy tryptamine]	Agonist
COc1ccc2[nH]c(I)c(CCNC(C)=O)c2c1 [Compound 4k]	Agonist

Each compound was assayed against N-acetyl-5-methoxytryptamine receptors (assay: relative affinity for the specific N-acetyl-5-methoxytryptamine receptors). Settings: association constant; SE printed in a separate column.
Format: binding
Description: as §1

Ka ± SE	Structure (SMILES)
4.1e+09 L/mol	COc1ccc2[nH]c(-c3ccccc3)c(CCNC(=O)C3CC3)c2c1 [Compound 4g]
